Assay results taken from ChEMBL document CHEMBL3085662, “Overman rearrangement and Pomeranz-Fritsch reaction for the synthesis of benzoazepinoisoquinolones to discover novel antitumor agents” (Eur J Med Chem, 2013).
pIC50: −log10 of the molar value.

How the values were obtained:
A-375 [1] = experiment: Cytotoxicity against human A375 cells after 72 hrs by MTT assay; format: functional, cell-based; conditions: A-375, 72 h
HCT-116 [2] = experiment: Cytotoxicity against human HCT116 cells after 72 hrs by MTT assay; format: functional, cell-based; conditions: HCT-116, 72 h
cells = format: functional; conditions: Homo sapiens, 786-0, 72 h
Description: Cytotoxicity against human 786-O cells at 10 uM after 72 hrs by MTT assay

HepG2 = experiment: Cytotoxicity against human HepG2 cells at 10 uM after 72 hrs by MTT assay; format: functional; conditions: HepG2, 72 h
K562 = experiment: Cytotoxicity against human K562 cells at 10 uM after 72 hrs by MTT assay; format: functional; conditions: K562, 72 h
A-375 [3] = experiment: Cytotoxicity against human A375 cells at 10 uM after 72 hrs by MTT assay; format: functional; conditions: A-375, 72 h
[4] = Cytotoxicity against human NCI-H1115 cells at 10 uM after 72 hrs by MTT assay; format: functional; conditions: NCI-H1115, 72 h
[5] = Cytotoxicity against human LN18 cells at 10 uM after 72 hrs by MTT assay; format: functional; conditions: LN-18, 72 h
[6] = Cytotoxicity against human Jurkat E6-1 cells at 10 uM after 72 hrs by MTT assay; format: functional
NCI-N87 = experiment: Cytotoxicity against human NCI-N87 cells at 10 uM after 72 hrs by MTT assay; format: functional; conditions: NCI-N87, 72 h
PC-3 = experiment: Cytotoxicity against human PC3 cells at 10 uM after 72 hrs by MTT assay; format: functional; conditions: PC-3, 72 h
HCT-116 [7] = experiment: Cytotoxicity against human HCT116 cells at 10 uM after 72 hrs by MTT assay; format: functional; conditions: HCT-116, 72 h
[8] = Cytotoxicity against human U937 cells at 10 uM after 72 hrs by MTT assay; format: functional; conditions: U-937, 72 h
MDA-MB-231 = experiment: Cytotoxicity against human MDA-MB-231 cells at 10 uM after 72 hrs by MTT assay; format: functional; conditions: MDA-MB-231, 72 h
NCI-H69 = experiment: Cytotoxicity against human NCI-H69 cells at 10 uM after 72 hrs by MTT assay; format: functional; conditions: NCI-H69, 72 h
HT-29 = experiment: Cytotoxicity against human HT-29 cells at 10 uM after 72 hrs by MTT assay; format: functional; conditions: HT-29, 72 h

| Structure (SMILES) | pIC50 (A-375 [1]) | pIC50 (HCT-116 [2]) | further results |
| --- | --- | --- | --- |
| C=CCOc1nc(-c2ccc3c(c2)OCO3)cc2ccc(OC)c(OC)c12 | < 5.00 | < 5.00 |  |
| COc1ccc2cc(-c3ccc4c(c3)OCO4)n(CCC=O)c(=O)c2c1OC | 5.53 | 5.33 |  |
| C=CCn1c(-c2cc3c(cc2C=C)OCO3)cc2ccc(OC)c(OC)c2c1=O | 6.77 | 6.19 |  |
| CO/C=C/Cn1c(-c2ccc3c(c2)OCO3)cc2ccc(OC)c(OC)c2c1=O | 6.96 | 6.38 |  |
| COc1ccc2cc(-c3ccc4c(c3)OCO4)n(CC(O)CO)c(=O)c2c1OC (racemic) | < 5.00 | < 5.00 |  |
| COc1ccc2cc(-c3ccc4c(c3)OCO4)n(CC=O)c(=O)c2c1OC | 5.42 | 5.03 |  |
| C=CCOc1nc(-c2ccc(OC)c(OC)c2)cc2ccc(OC)c(OC)c12 | < 5.00 | < 5.00 |  |
| COc1ccc2cc3n(c(=O)c2c1OC)CC=Cc1cc2c(cc1-3)OCO2 | 6.23 | 5.31 | inhibition at 10 µM (cells): 61.9%; inhibition at 10 µM (HepG2): 54.6%; inhibition at 10 µM (K562): 51%; inhibition at 10 µM (A-375 [3]): 86.5%; inhibition at 10 µM [4]: 77.7%; inhibition at 10 µM [5]: 56.4%; inhibition at 10 µM [6]: 73%; inhibition at 10 µM (NCI-N87): 46%; inhibition at 10 µM (PC-3): 58.4%; inhibition at 10 µM (HCT-116 [7]): 59.1%; inhibition at 10 µM [8]: 66.9%; inhibition at 10 µM (MDA-MB-231): 39.1%; inhibition at 10 µM (NCI-H69): 56.8%; inhibition at 10 µM (HT-29): 50.3% |
| CNC(=O)c1cc(Oc2ccc(NC(=O)Nc3ccc(Cl)c(C(F)(F)F)c3)cc2)ccn1 [SORAFENIB] | 5.12 | 5.25 |  |
| C=CCn1c(-c2ccc(OC)c(OC)c2)cc2ccc(OC)c(OC)c2c1=O | 6.30 | < 5.00 |  |
| COc1cc2c(cc1OC)-c1cc3ccc(OC)c(OC)c3c(=O)n1CC=C2 | 5.68 | 5.05 |  |
| COc1ccc2cc3n(c(=O)c2c1OC)CC(O)C(O)c1cc2c(cc1-3)OCO2 (centres undefined) | 5.05 | 4.65 | inhibition at 10 µM (cells): 11%; inhibition at 10 µM (HepG2): 20.9%; inhibition at 10 µM (K562): 15.6%; inhibition at 10 µM (A-375 [3]): 51.1%; inhibition at 10 µM [4]: 25.8%; inhibition at 10 µM [5]: 36.5%; inhibition at 10 µM [6]: 14.8%; inhibition at 10 µM (NCI-N87): 18.3%; inhibition at 10 µM (PC-3): 33.9%; inhibition at 10 µM (HCT-116 [7]): 32.8%; inhibition at 10 µM [8]: 23.5%; inhibition at 10 µM (MDA-MB-231): 9.29%; inhibition at 10 µM (NCI-H69): 19.8%; inhibition at 10 µM (HT-29): 7.56% |
| C=Cc1cc2c(cc1-c1cc3ccc(OC)c(OC)c3c(=O)[nH]1)OCO2 | 6.37 | 5.81 |  |
| COc1ccc(-c2cc3ccc(OC)c(OC)c3c(=O)n2CCC=O)cc1OC | 5.24 | < 5.00 |  |
| COc1ccc2cc(-c3ccc4c(c3)OCO4)[nH]c(=O)c2c1OC | 5.10 | < 5.00 |  |
| COc1ccc(-c2cc3ccc(OC)c(OC)c3c(=O)[nH]2)cc1OC | < 5.00 | < 5.00 |  |
| CCCS(=O)(=O)Nc1ccc(F)c(C(=O)c2c[nH]c3ncc(-c4ccc(Cl)cc4)cc23)c1F [VEMURAFENIB] | 6.74 | < 4.52 |  |
| C=CCn1c(-c2ccc3c(c2)OCO3)cc2ccc(OC)c(OC)c2c1=O | 6.70 | 6.07 |  |
